ChEMBL document CHEMBL4184156, “Repurposing Hsp90 inhibitors as antibiotics targeting histidine kinases” (Bioorg Med Chem Lett, 2017)
pIC50: −log10 of the molar value. ≈ marks a conversion by molar mass, not a printed value. Calls of active or inactive are those of the source. The rule behind the calls is not given here.

Tests used:
[1] = target: Cell cycle histidine kinase CckA (Caulobacter vibrioides, UniProt Q9X688); assay: Inhibition of recombinant Caulobacter vibrioides cell cycle histidine kinase CckA deltaTM mutant DHp domain (70 to 691 residues) expressed in Escherichia coli in presence of varying levels of ATP measured every 60 secs for 2 hrs by PK/LDH enzyme coupled assay
[2] = tested on: Caulobacter vibrioides; assay: Antibacterial activity against Caulobacter crescentus NA1000 after 24 hrs by broth dilution method; format: functional; details: NA1000, 24 h
[3] = tested on: Escherichia coli; assay: Antibacterial activity against Escherichia coli DC2 after 24 hrs by broth dilution method; format: functional; details: DC2, 24 h
[4] = target: T1, Virulence sensor histidine kinase PhoQ (Salmonella typhimurium (strain LT2 / SGSC1412 / ATCC 700720)) (UniProt P0DM80); assay: (§1) Inhibition of recombinant Salmonella typhimurium N-terminal His6-SUMO-tagged DHp-catalytic domain PhoQ (257 to 487 residues) autophosphorylation expressed in Escherichia coli BL21(DE3) at 500 uM preincubated for 10 mins followed by [gamma-32P]-ATP addition after 30 mins by phosphotransferase dot blot assay relative to control; design: scale not given: the % may be the effect or the level left; details: Salmonella enterica subsp. enterica serovar Typhimurium
T1 sequence (whole entry): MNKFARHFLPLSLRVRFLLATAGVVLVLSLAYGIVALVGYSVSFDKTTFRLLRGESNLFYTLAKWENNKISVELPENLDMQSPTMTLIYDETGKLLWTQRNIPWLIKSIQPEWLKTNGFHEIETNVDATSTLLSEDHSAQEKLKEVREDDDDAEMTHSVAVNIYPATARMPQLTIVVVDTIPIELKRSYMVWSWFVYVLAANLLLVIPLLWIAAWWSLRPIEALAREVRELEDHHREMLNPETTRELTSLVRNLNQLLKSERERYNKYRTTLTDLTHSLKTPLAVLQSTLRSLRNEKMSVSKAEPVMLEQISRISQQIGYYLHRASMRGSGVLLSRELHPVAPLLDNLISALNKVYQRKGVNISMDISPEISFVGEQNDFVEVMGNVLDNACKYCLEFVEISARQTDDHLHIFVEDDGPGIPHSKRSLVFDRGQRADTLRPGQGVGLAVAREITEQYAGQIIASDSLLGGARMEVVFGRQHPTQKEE

[5] = target: T2, Cell cycle histidine kinase CckA (Caulobacter vibrioides) (UniProt Q9X688); assay: Binding affinity to recombinant Caulobacter vibrioides cell cycle histidine kinase CckA delta 3 mutant DHp domain (190 to 562 residues) expressed in Escherichia coli assessed as change in metlting temperature at 30 uM after 2 mins by SYPRO orange dye based DSF assay
T2 sequence (whole entry): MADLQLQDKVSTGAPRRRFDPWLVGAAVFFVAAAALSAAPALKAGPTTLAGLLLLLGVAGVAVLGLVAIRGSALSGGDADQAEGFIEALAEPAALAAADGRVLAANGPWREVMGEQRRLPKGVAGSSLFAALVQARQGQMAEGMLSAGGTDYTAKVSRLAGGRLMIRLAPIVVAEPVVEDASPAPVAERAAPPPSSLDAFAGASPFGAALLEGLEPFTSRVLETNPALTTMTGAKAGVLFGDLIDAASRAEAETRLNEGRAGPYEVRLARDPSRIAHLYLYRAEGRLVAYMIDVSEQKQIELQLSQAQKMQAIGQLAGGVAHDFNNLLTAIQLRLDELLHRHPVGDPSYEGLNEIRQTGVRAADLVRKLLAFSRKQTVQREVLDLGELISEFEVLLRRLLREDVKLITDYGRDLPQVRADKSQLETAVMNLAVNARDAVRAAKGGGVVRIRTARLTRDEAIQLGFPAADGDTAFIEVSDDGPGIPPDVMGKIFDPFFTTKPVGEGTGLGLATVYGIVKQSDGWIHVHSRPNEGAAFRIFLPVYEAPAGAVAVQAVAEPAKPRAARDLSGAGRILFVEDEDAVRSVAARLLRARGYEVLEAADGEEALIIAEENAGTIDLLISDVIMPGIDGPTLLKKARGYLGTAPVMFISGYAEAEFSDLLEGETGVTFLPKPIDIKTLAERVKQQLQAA

[6] = target: T1, Virulence sensor histidine kinase PhoQ (Salmonella typhimurium (strain LT2 / SGSC1412 / ATCC 700720)); assay: Inhibition of recombinant Salmonella typhimurium N-terminal His6-SUMO-tagged PhoQ (257 to 487 residues) expressed in Escherichia coli BL21 (DE3) assessed as enzyme aggregation at 400 uM after 30 mins by native-PAGE analysis; details: Salmonella enterica subsp. enterica serovar Typhimurium
[7] = target: T3, Virulence sensor histidine kinase PhoQ (Salmonella typhimurium (strain LT2 / SGSC1412 / ATCC 700720), UniProt P0DM80); assay: Inhibition of recombinant Salmonella typhimurium N-terminal His6-SUMO-tagged DHp-catalytic domain PhoQ (257 to 487 residues) autophosphorylation expressed in Escherichia coli BL21 (DE3) preincubated for 10 mins followed by [gamma-32P]-ATP addition after 30 mins by phosphotransferase dot blot assay; design: species or system Salmonella enterica subsp. enterica serovar Typhimurium
T3 sequence (P0DM80 whole entry): T1 sequence (whole entry)

[8] = target: T4, Histidine protein kinase DivJ (Caulobacter vibrioides (strain ATCC 19089 / CB15) (Caulobactercrescentus)) (UniProt Q03228); assay: as §1, with “Caulobacter vibrioides” for “Salmonella typhimurium”, “His6-tagged” for “His6-SUMO-tagged”, “DivJ (188” for “PhoQ (257”, “585” for “487”, “15” for “30”; design: scale not given: the % may be the effect or the level left
T4 sequence (whole entry): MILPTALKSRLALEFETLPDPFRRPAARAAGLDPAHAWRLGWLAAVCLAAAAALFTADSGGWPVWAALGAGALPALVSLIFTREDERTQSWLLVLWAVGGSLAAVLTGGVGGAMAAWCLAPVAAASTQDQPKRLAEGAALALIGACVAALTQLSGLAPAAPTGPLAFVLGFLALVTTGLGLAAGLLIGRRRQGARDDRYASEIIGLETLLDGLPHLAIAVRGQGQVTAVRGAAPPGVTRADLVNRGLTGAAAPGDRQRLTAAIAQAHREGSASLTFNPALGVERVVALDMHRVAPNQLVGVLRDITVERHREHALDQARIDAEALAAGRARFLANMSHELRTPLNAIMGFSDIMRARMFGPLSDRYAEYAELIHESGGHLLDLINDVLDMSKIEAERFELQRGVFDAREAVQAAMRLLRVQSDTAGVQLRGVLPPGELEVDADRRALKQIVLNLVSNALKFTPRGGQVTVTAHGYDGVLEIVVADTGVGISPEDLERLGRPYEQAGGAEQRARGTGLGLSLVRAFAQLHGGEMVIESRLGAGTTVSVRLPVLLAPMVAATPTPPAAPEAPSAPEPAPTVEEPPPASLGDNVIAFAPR

[9] = tested on: Bacillus subtilis; assay: Antibacterial activity against Bacillus subtilis YB886 after 24 hrs by broth dilution method; format: functional; details: YB886, 24 h
[10] = Hemolytic activity against sheep RBC at 0.5 mM after 30 mins relative to control; format: ADME, cell-based, Ovis aries, Erythrocyte; details: sheep red blood cells (erythrocytes), read-out: Activity
[11] = target: T2, Cell cycle histidine kinase CckA (Caulobacter vibrioides); assay: Inhibition of recombinant Caulobacter vibrioides cell cycle histidine kinase CckA deltaTM mutant DHp domain (70 to 691 residues) expressed in Escherichia coli at 250 uM in presence of varying levels of ATP measured every 60 secs for 2 hrs by PK/LDH enzyme coupled assay relative to control
[12] = tested on: Bacillus subtilis; assay: Antimicrobial activity against Bacillus subtilis 3610 after 20 hrs by Mueller-Hinton Broth microdilution method; format: functional; details: subsp. subtilis str. NCIB 3610, 20 h
[13] = tested on: Escherichia coli; assay: Antimicrobial activity against Escherichia coli DC2 after 20 hrs by Mueller-Hinton Broth microdilution method; format: functional; details: DC2, 20 h
[14] = target: T5, Sensor protein kinase WalK family protein (Streptococcus pneumoniae PCS8203, UniProt A0A0H2UQD0); assay: Inhibition of Streptococcus pneumoniae VicK preincubated for 30 mins followed by [gamma-33P]ATP addition after 30 mins by SDS-PAGE method
T5 sequence (A0A0H2UQD0 whole entry): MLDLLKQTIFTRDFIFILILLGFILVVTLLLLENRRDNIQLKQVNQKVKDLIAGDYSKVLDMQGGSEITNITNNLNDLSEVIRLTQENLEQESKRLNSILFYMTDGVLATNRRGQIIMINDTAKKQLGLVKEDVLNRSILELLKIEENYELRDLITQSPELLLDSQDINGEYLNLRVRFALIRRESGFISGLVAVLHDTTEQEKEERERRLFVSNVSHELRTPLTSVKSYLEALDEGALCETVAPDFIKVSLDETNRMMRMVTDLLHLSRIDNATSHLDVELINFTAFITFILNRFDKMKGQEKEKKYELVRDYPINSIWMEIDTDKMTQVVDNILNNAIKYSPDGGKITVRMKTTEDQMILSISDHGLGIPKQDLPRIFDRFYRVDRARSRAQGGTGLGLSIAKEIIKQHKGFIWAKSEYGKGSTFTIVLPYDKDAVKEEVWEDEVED

[15] = tested on: Staphylococcus epidermidis; assay: Antimicrobial activity against Staphylococcus epidermidis ATCC 35984 after 10 hrs; format: functional; details: ATCC 35984, 10 h
[16] = target: T1, Virulence sensor histidine kinase PhoQ (Salmonella typhimurium (strain LT2 / SGSC1412 / ATCC 700720)); assay: as §1, with “BL21 (DE3)” for “BL21(DE3)”, “800” for “500”; design: scale not given: the % may be the effect or the level left; details: Salmonella enterica subsp. enterica serovar Typhimurium

Compound | pIC50 [1] | MIC [2] [µM] | MIC [3] [µM] | Activity [4] [%] | ΔTm [5] [°C] | inhibition [6] | pIC50 [7] | Activity [8] [%] | MIC [9] [µM] | hemolysis at 0.5 h, 500 µM [10] [%] | inhibition [11] [%] | MIC [12] [µg/mL] | MIC [13] [µg/mL] | pIC50 [14] | MIC [15] [µg/mL] | Activity [16] [%]
Cc1[nH]nc(-c2cc(Cl)c(O)cc2O)c1-c1ccc2c(c1)OCCO2 | 4.55 to 4.95 | 225 (≈ 80.7 µg/mL) | 75 (≈ 26.9 µg/mL) | 35 | 5.3 | inactive | 3.57 | 113 | 112 to 150 (≈ 40.4 to 53.8 µg/mL) | 2 | – | – | – | – | – | –
Nc1ncnc2c1ncn2[C@@H]1O[C@H](COP(=O)(O)OP(=O)(O)NP(=O)(O)O)[C@@H](O)[C@H]1O | – | – | – | – | 3.5 | – | – | – | – | – | – | – | – | – | – | –
CCc1cc(-c2n[nH]c(C)c2-c2ccc(OC)cc2)c(O)cc1O | 4.73 | 225 (≈ 73 µg/mL) | 75 (≈ 24.3 µg/mL) | 36 | 4.1 | – | – | 118 | 112 (≈ 36.5 µg/mL) | 15 | – | – | – | – | – | –
CN(C)c1cc2c(cc1Sc1nc3c(N)nccc3n1CCNCC(C)(C)C)OCO2 [CUDC-305] | – | > 300 | 4.7 to 75 (≈ 2.08 to 33.2 µg/mL) | 110 | 0.4 | – | – | 96 | > 300 | 3 | 79 | – | – | – | – | –
Nc1nc2ccc(Oc3ccc4nc(N)sc4c3)cc2s1 | – | – | – | – | – | – | – | – | – | – | – | 49 to 64 (≈ 156 to 204 µM) | 32 to 64 (≈ 102 to 204 µM) | 4.12 | – | –
O=C(O)c1ccc(-c2ccc(/C=C3\S/C(=N\c4ccccc4)N(c4ccc(F)cc4)C3=O)s2)cc1 | – | – | – | – | – | – | – | – | – | – | – | – | – | – | 0.75 (≈ 1.5 µM) | –
CC(C)NCCCn1c(Sc2cc3c(cc2I)OCO3)nc2c(N)ncnc21 [PU-H71] | – | > 300 | 75 to 225 (≈ 38.4 to 115 µg/mL) | 103 | 0.5 | – | – | 122 | > 300 | 1 | 61 | – | – | – | – | –
CCNC(=O)c1noc(-c2cc(C(C)C)c(O)cc2O)c1-c1ccc(CN2CCOCC2)cc1 [LUMINESPIB] | 4.55 to 5.14 | > 300 | 37.5 to 75 (≈ 17.5 to 34.9 µg/mL) | 73 | 1.8 | inactive | – | 109 | > 300 | 1 | – | – | – | – | – | 56
Cc1n[nH]c(-c2cc(Cl)c(O)cc2O)c1-c1ccccc1 | – | 225 (≈ 67.7 µg/mL) | 37.5 to 75 (≈ 11.3 to 22.6 µg/mL) | 45 | 4.5 | – | – | 115 | 150 (≈ 45.1 µg/mL) | – | – | – | – | – | – | –
